From ChEMBL document CHEMBL5252605, “Design, synthesis, and biological testing of biphenylmethyloxazole inhibitors targeting HIV-1 reverse transcriptase” (Bioorg Med Chem Lett, 2023)
Activity calls are given as the source filed them. The calls are words filed in the database; no cut-off is given here.

Key:
[1] = target: Human immunodeficiency virus type 1 reverse transcriptase (Human immunodeficiency virus 1, UniProt Q72547); assay: Inhibition of recombinant wildtype HIV-1 reverse transcriptase using r(A)350 as template and d(T)16 as primer preincubated with compound for 1 hrs followed by template/primer addition and measured after 30 mins by picogreen based plate reader analysis
MT2 = assay: Cytotoxicity against human MT2 cells assessed as inhibition of cell growth; type: toxicity, cell-based
[2] = test system: Human immunodeficiency virus 1; assay: Antiviral activity against wildtype HIV-1 IIIb infected in human MT2 cells assessed as protection of viral infected cells; type: functional, organism-based; conditions: for EC50: Human immunodeficiency virus 1, IIIB
[3] = target: Human immunodeficiency virus type 1 reverse transcriptase (Human immunodeficiency virus 1) (UniProt Q72547); assay: Time dependent inhibition of recombinant wildtype HIV-1 reverse transcriptase at 0.1 to 1000000 nM; conditions: dose 0.1-1e+06 nM, time 1-48 hrs

Row | SMILES | IC50 [1] [µM] | CC50 (MT2) [µM] | EC50 [2] [µM] | Activity [2] | TDI [3]
1 | N#Cc1ccc(Nc2ncc(Cc3c(F)cc(-c4ccccc4)cc3F)o2)cc1 | 0.02 | 59 | 0.17 | – | –
2 | C=Cc1ccc(-c2cc(F)c(Cc3cnc(Nc4ccc(C#N)c(Cl)c4)o3)c(F)c2)cc1 | 0.017 | 30 | 0.019 | – | –
3 | N#Cc1ccc(-c2cc(F)c(Cc3cnc(Nc4ccc(C#N)c(Cl)c4)o3)c(F)c2)cc1 | < 0.01 | 9.5 | 0.016 | – | –
4 | N#Cc1ccc(Nc2ncc(Cc3ccc(-c4ccccc4)cc3)o2)cc1 | > 100 | 80 | – | inactive | –
5 | N#Cc1ccc(Nc2ncc(Cc3c(F)cc(-c4ccc(C#N)cc4)cc3F)o2)cc1 | 0.011 | 9 | 0.03 | – | –
6 | N#Cc1ccc(Nc2ncc(Cc3c(F)cc(-c4ccc(OS(=O)(=O)F)cc4)cc3F)o2)cc1 | > 20 | 30 | – | inactive | inactive
7 | N#Cc1ccc(Nc2ncc(Cc3c(F)cc(-c4ccc(O)cc4)cc3F)o2)cc1Cl | 0.28 | 15 | 1.3 | – | –
8 | N#Cc1ccc(Nc2ncc(Cc3c(F)cc(-c4ccc(OS(=O)(=O)F)cc4)cc3F)o2)cc1Cl | 3 | 25 | 4.3 | – | inactive
9 | N#Cc1ccc(Nc2ncc(Cc3c(F)cccc3F)o2)cc1Cl | – | – | 0.0062 | – | –
10 | N#Cc1ccc(Nc2ncc(Cc3c(F)cc(-c4ccc(C5CO5)cc4)cc3F)o2)cc1Cl (configuration not stated) | 0.44 | 25 | 0.61 | – | inactive
11 | COc1ccc(-c2ccc(Cc3cnc(Nc4ccc(C#N)cc4)o3)cc2)cc1 | > 10 | 27 | – | inactive | –
12 | N#Cc1ccc(Nc2ncc(Cc3c(F)cc(-c4ccc(O)cc4)cc3F)o2)cc1 | > 1 | 15 | 5.5 | – | –
